Results on 4 compounds are retold here after patent US8399672B2, “Compound having affinity for amyloid” (Nihon Medi-Physics Co., Ltd., priority 2007, dated 2013).

Read-outs that look alike come from different tables or passages of the source.

Data set [1] addresses T1, amyloid in brain (aggregated Aβ1-42 injected into amygdaloid nucleus) (Homo sapiens, UniProt P05067).
T1 construct: Aβ1-42 (manufactured by Wako); purchased Wako
Description: Confirmation of binding to amyloid in brain (in vitro autoradiogram of brain slice). Also on record: species or system male Wistar rat. The conditions noted are these: rat brain slice immersed in sample solution (0.1 MBq/mL). As to the method: (1) Aβ1-42 (manufactured by Wako) was dissolved in phosphate buffer (pH 7.4) and shaken at 37° C. for 72 hours, to obtain a 1 mg/mL suspension of aggregated Aβ (hereinafter referred to as amyloid suspension in the present Example).
(2) Under thiopental anesthesia, the […] of the amyloid suspension was injected into an amygdaloid nucleus on one side of a male Wistar rat (7-week old). As a control, 2.5 μL of a phosphate buffered physiological saline solution (pH 7.4) was injected into an amygdaloid nucleus on the other side of the rat. A brain was removed from the rat a day after the injection of an amyloid suspension and a phosphate buffered physiological saline solution (pH 7.4) to prepare a brain slice of 10 μm in thickness with a microtome (type: CM3050S, manufactured by LEICA).
(3) Compound 6 in diethylether solution was diluted with a 1% bovine serum albumin/phosphate buffer (hereinafter referred to as 1% PB/BSA in the present Example) to obtain a sample solution (0.1 MBq/mL in radioactivity concentration). […]
(5) After the completion of the image analysis using the Bio-imaging Analyzer, pathological staining with Thioflavin T was carried out to perform imaging by use of a fluorescence microscope (manufactured by NIKON Corporation; type: TE2000-U model; excitation wavelength: 400-440 nm; detection wavelength: 470 nm). […]

The conditions of data set [2]: rats, [11C]-labeled; cited from earlier work.
The test system of data set [3] is Escherichia coli WP2uvrA. Description: Reverse mutation test (Ames test), strain WP2uvrA. The class given is cell-based. As to the method:
(§1) In order to examine gene mutagenicity of Compound 5, reverse mutation test using Salmonella typhimurium TA98 and TA100, TA1535, TA1537 and Escherichia coli WP2uvrA (hereinafter referred to as Ames test) was conducted.
(§2) The test was conducted without addition of S9mix and with addition of S9mix. Dimethylsulfoxide (DMSO) was used as a negative control.
(§3) As a sample solution to be added to a test plate, a 50 mg/mL solution of Compound 5 in DMSO and solutions obtained by diluting this solution with DMSO to have various concentrations were prepared. For positive control without addition of S9mix, when TA98 was used as a test strain, a solution of AF-2 (compound concentration: 1 μg/mL) in DMSO was prepared and used as a sample solution; when TA100 or WP2uvrA was used as a test strain, a solution of AF-2 (compound concentration: 0.1 μg/mL) in DMSO was prepared and used as a sample solution; when TA1535 was used as a test strain, a solution of NaN3 (compound concentration: 5 μg/mL) in water for injection was prepared and used as a sample solution; and when TA1537 was used as a test strain, a solution of 9AA (compound concentration: 800 μg/mL) in DMSO was prepared and used as a sample solution. […]
(In the Ames test, an excess of revertant colonies over the control signals mutagenicity.)

In data set [4] the test system is Salmonella typhimurium TA100. Description: Reverse mutation test (Ames test), strain TA100. The class given is cell-based. As to the method: as §1, §2, §3
The test system of data set [5] is Salmonella typhimurium TA98 and TA100, TA1535, TA1537 and Escherichia coli WP2uvrA. Briefly: Reverse mutation test (Ames test), overall judgment over all strains. The class given is cell-based. As to the method:
as §1, §2, §3

In data set [6] the test system is Salmonella typhimurium TA1537. Briefly: Reverse mutation test (Ames test), strain TA1537. The class given is cell-based. As to the method: as §1, §2, §3
The test system of data set [7] is Salmonella typhimurium TA1535. Description: Reverse mutation test (Ames test), strain TA1535. The class given is cell-based. As to the method: as §1, §2, §3
For data set [8], the system named is Salmonella typhimurium TA98. Description: Reverse mutation test (Ames test), strain TA98. In kind it is cell-based. As to the method: as §1, §2, §3
For data set [9] the following is noted: [125I]-labeled compounds; cited from earlier work.
The conditions of data set [10]: reported in WO03/106439; cited from earlier work.

T1 sequence (P05067 672-713 limits assumed): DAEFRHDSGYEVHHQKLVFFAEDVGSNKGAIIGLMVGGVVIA

Turning to `COc1cc(OCCO)ccc1-c1cn2cc([123I])ccc2n1`, the “Binding to intracerebral amyloid” value in [1] is listed as “property of binding to intracerebral amyloid”.

Consider `CNc1ccc(/C=C/c2ccc(O)cc2)cc1` [SB-13, (E)-4-methylamino-4′-hydroxystilbene], for which the “Clearance from normal tissues” value in data set [2] was “shows a clearance from normal tissues”.

As for `COc1ccc2nc(-c3ccc(OCCCF)c(I)c3)cn2c1` [Compound 5, 2-[4′-(3″-fluoropropoxy)-3′-iodophenyl]-6-methoxyimidazo[1,2-a]pyridine], the “Mutagenicity, WP2uvrA” value in data set [3] (with addition of S9mix) and in data set [3] (without addition of S9mix) was “Negative” in each case. For the same compound, the “Mutagenicity, TA100” value in data set [4] (with addition of S9mix) and in data set [4] (without addition of S9mix) was “Negative” throughout. The “Judgment in the Ames test (mutagenicity)” value in data set [5] (all strains, with and without S9mix) is reported as “negative”. The “Number of reverse mutation colonies relative to the negative control” value in data set [5] (regardless of addition of S9mix and addition amount) is recorded as “less than two times”. In addition, the “Mutagenicity, TA1537” value in [6] (with addition of S9mix) and in data set [6] (without addition of S9mix) was “Negative” throughout. In addition, the “Mutagenicity, TA1535” value in data set [7] (with addition of S9mix) and in [7] (without addition of S9mix) was “Negative” throughout. Besides, the “Mutagenicity, TA98” value in data set [8] (with addition of S9mix) and in data set [8] (without addition of S9mix) was “Negative” throughout.

With `CN(C)c1ccc(-c2cn3cc(I)ccc3n2)cc1` [IMPY, 6-iodo-2-[4′-(N,N-dimethylamino)phenyl]imidazo[1,2-a]pyridine], in data set [9], the “Clearance from normal tissues” value is “rapid clearance from normal tissues”. Also, the “Result in reverse mutation test” value in data set [10] was “positive”.
